Laboratory results: patent US12601734B2, “Methods and uses of enzymatic labeling of ADP-ribose containing molecules” (THE JOHNS HOPKINS UNIVERSITY, priority 2018, dated 2026)

System: HaCaT cells
Assay: ELTA labeling (32P-dATP, sequencing gel) of PAR isolated from H2O2-treated cells
Format: cell-based
Conditions: HaCaT cells pre-treated with inhibitor prior to H2O2 induction of PAR (FIG. 6b)
Description: FIG. 6A-6B illustrates the detection of ADP-ribose length using ELTA. (a) A sequencing gel of the ELTA labeling reaction of ADP-ribose monomer (lane 1), PAR (lane 2), and of ADP-ribose monomer and polymer isolated from in vitro ADP-ribosylated PARP1 by NAD^+ in the presence of the PARP inhibitor Olaparib (lane 3), by NAD^+ for 10 min in the absence of Olaparib (lane 4) and by NAD^+ for 30 min (lane 5). As a comparison, the ADP-ribose monomer and polymer isolated from in vitro ADP-ribosylated PARP1 by NAD+ with a trace of ^32P-NAD+ in the presence of Olaparib for 30 min (lane 6), by NAD^+ for 10 min in the absence of Olaparib (lane 7) and by NAD^+ for 30 min (lane 8). (b) A sequencing gel of the ELTA labeling reaction of ADP-ribose monomer and polymer isolated from in vitro ADP-ribosylated haPARP (lane 1), from untreated cancer cells (lane 2), from cancer cells with DNA damage (lane 3), from cancer cells with DNA damage and treated with PARP inhibitor (lane 4) and from cancer cells with DNA damage and treated with PARG inhibitor (lane 5).
Next, the inventors tested whether ELTA can be used to examine PAR isolated from cells (FIG. 6b). PAR was retrieved from cells using a solid-phase extraction method that allows for the high recovery of PAR without any bias of different chain length. HaCaT cells were either untreated, H2O2-treated to induce PARylation, pre-treated with PARP inhibitor Olaparib prior to H2O2 induction of PAR, or pre-treated with inhibitor against the PAR-degrading enzyme PARG (PDD 00017273) prior to H2O2 induction of PAR. As a control, the inventors also isolated PAR from in vitro modified Herpetosiphon aurantiacus PARP (haPARP), which usually generates PAR of 2-25 mer (lane 1), using the same solid-phase extraction method. As expected, we observed significant PAR signals in H2O2-treated cell samples (FIG. 6b; lane 3), which is longer from the one isolated from haPARP (lane 1). […] Taken together, ELTA can assess the length of PAR isolated in vitro or from cells.

Molecule | PAR length distribution isolated from cells | PAR signal isolated from cells
PDD 00017273 | stronger signals were observed at a shorter range | enrichment of overall signals
O=C(c1cc(Cc2n[nH]c(=O)c3ccccc23)ccc1F)N1CCN(C(=O)C2CC2)CC1 [Olaparib] |  | reduced the signal to background level
